Experiments:
[1] = test system: subjects with relapsing remitting multiple sclerosis (RRMS); test: ALLEGRO (MS-LAQ-301) Phase III trial: relapse endpoints; type: in vivo, human
Excerpt: The primary endpoint of the study was the number of confirmed relapses during the double-blind treatment period, which corresponds to the annualized relapse rate (ARR—number of relapses divided by total exposure of all patients). Secondary endpoints included disability as measured by Expanded Disability Status Scale (EDSS) changes confirmed at 3 months, and cumulative number of gadolinium enhancing (GdE) and new/enlarging T2 MRI lesions. […] Eligible subjects were equally randomized 1:1 into one of the following treatment arms: • 1. […] 21, 2007 (see, page 10, line 5 to page 11, line 3). • 2. Matching placebo for laquinimod arm: one capsule is administered once daily. The primary endpoint was the number of confirmed relapses during the double-blind study period. A relapse was defined as the appearance of one or more new neurological abnormalities or the reappearance of one or more previously observed neurological abnormalities lasting for at least 48 hours and after an improved neurological state for at least 30 days. An event was counted as a relapse if the subject's symptoms were accompanied by observed objective neurological changes consistent with at least one of the following: an increase of at least 0.5 in the EDSS score; an increase of one grade in two or more of the seven functional systems; or an increase of two grades in one functional system. Standardized treatment of relapses was intravenous methylprednisolone 1 g/day for up to five consecutive days based on the treating neurologist's decision. The number of confirmed relapses (and Annualized relapse rate) during the double blind study period. The analysis of the total number of confirmed relapses during the study period is based on baseline adjusted Quasi-Likelihood (over-dispersed) Poisson Regression. Using the Poisson regression with the treatment group as a covariate, the ARR of each group was calculated for the intent-to-treat (ITT) cohort as the total number of confirmed relapses for all patients in each group divided by the total patient years in that group. In addition to the treatment group, the following covariates were included: baseline EDSS score, log of the (prior 2-year number of relapses +1) and country or geographical region.

relapsing MS = conditions: cited from earlier work
[2] = test system: subjects with relapsing remitting multiple sclerosis (RRMS); test: ALLEGRO Phase III trial: disability endpoints (EDSS, MSFC); type: in vivo, human; conditions: for Time to confirmed (3 Ms) progression - EDSS, patients progressed: 24 months
Excerpt: Secondary endpoints were disability progression as measured by the EDSS and the Multiple Sclerosis Functional Composite (MSFC). Confirmed disability progression was defined as an increase of ≧1.0 EDSS point from baseline if baseline EDSS was between 0 and 5.0, or an increase of ≧0.5 point if baseline EDSS was ≧5.5. In order to confirm EDSS progression, these increases had to be sustained for at least three months. Additional predefined disability endpoints include the proportion of patients without confirmed disability progression at 24 months; confirmed disability progression (defined as change in EDSS scores ≧1.0 points for baseline EDSS 0 to 5.0 or ≧5.5) sustained for six months; the accumulation of physical disability as measured by mean EDSS and the mean change in EDSS from baseline to last observed value (LOV). For the MSFC, the measure was the total MSFC z score at 24 months (including patients who terminated after 12 months). The 9-hole peg test (9HPT) and the Paced Auditory Serial Addition Test (PASAT) were performed three times at screening to reduce confounding training effects during the trial. • 1. Accumulation of physical disability measured by the time to confirmed progression of EDSS during the study period (A confirmed progression of EDSS is defined as a 1 point increase from baseline on EDSS score if baseline EDSS was between 0 and 5.0, or a 0.5 point increase if the baseline EDSS was 5.5, confirmed 3 months later. Progression cannot be confirmed during a relapse). • 2. Disability, as assessed by the MSFC score at the end of the treatment period (month 24/30). • 3. The cumulative number of new T2 lesions on scans taken on months 12 and 24 (and 30 in the case of the 6 months extended study). • 4. The cumulative number of enhancing lesions on T1-weighted images taken on months 12 and 24 (and 30 in case of extending the study for 6 months.) Safety and Tolerability Outcome Measures • 1. Adverse events. • 2. Vital signs. • 3. Weight. • 4. Physical examination. • 5. Electrocardiogram (ECG) findings. • 6. Clinical laboratory parameters. • 7. Proportion of subjects (%) who prematurely discontinued from the study, reason of discontinuation and the time to withdrawal. • 8. Proportion of subjects (%) who prematurely discontinued form the study due to AEs and the time to withdrawal. […] To control against type-I error, the secondary endpoints were analyzed only after a significant effect was found for the primary endpoint. […] The MSFC at month 24 was analyzed using a baseline-adjusted ANCOVA (SAS@PROC GLM) with baseline MSFC as 1 degree of freedom covariate and baseline EDSS score, log of the 2-year prior relapse rate +1 and country or geographical region as additional covariates. […]

[3] = post-hoc, vs placebo, listed as laquinimod

Q: With CCN(C(=O)c1c(O)c2c(Cl)cccc2n(C)c1=O)c1ccccc1 [Laquinimod, laquinimod] as the molecule, how does the “Relapses requiring hospitalization (annualized rate)” value ([1]; post-hoc) read?
A: 0.071

Q: What about the “ARR 1st year, Effect” value ([1]; post-hoc, vs placebo) of the same molecule?
A: 24% reduction

Q: What about the “ARR by median relapse duration: >34 days, Effect” value ([1]; post-hoc, vs placebo) of the same molecule?
A: 1.3% reduction

Q: And the “ARR by median relapse duration: ≦34 days, Effect” value ([1]; post-hoc, vs placebo)?
A: 37% reduction

Q: And the “ARR for dropouts, Effect” value ([1]; post-hoc, vs placebo)?
A: 26% reduction

Q: And the “ARR, Full recovery, Effect” value ([1]; post-hoc, vs placebo)?
A: 13% reduction

Q: What about the “ARR, No recovery, Effect” value ([1]; post-hoc, vs placebo) of the same molecule?
A: 24% reduction

Q: What about the “Relapses requiring IV steroids, Effect” value ([1]; post-hoc, vs placebo) of the same molecule?
A: 27% reduction

Q: And the “Relapses requiring hospitalization, Effect” value ([1]; post-hoc, vs placebo)?
A: 38% reduction

Q: What about the “Unconfirmed relapses, Effect” value ([1]; post-hoc, vs placebo) of the same molecule?
A: 17% reduction

Q: And the “Relapses requiring IV steroids, Effect” value [1, 3]?
A: 27 % reduction

Q: What about the “Relapses requiring hospitalization, Effect” value [1, 3] of the same molecule?
A: 38 % reduction

Q: What about the “ARR, No recovery” value ([1]; post-hoc, recovery refers to EDSS before and after attack) of the same molecule?
A: 0.06

Q: And the “Annualized rate of relapses requiring hospitalization and/or IV steroids, Effect” value ([1]; vs placebo)?
A: 27% reduction

Q: And the “Relapse-free during study, increase in odds to be relapse free” value ([1]; vs placebo)?
A: 55% increase odds to

Q: What about the “Relapse-free during study, increase in odds to be relapse free” value ([1]; vs placebo, listed as laquinimod) of the same molecule?
A: 55%

Q: And the “Development of active MRI lesions” value (relapsing MS)?
A: reduce development of active MRI lesions

Q: What about the “Time to confirmed (3 Ms) progression - EDSS, patients progressed” value [2] of the same molecule?
A: 9.8% progressed

Q: And the “Time to confirmed (3 Ms) progression - EDSS, patients progressed” value ([2]; listed as laquinimod)?
A: 9.8 % progressed

Q: And the “EDSS score at LOV, median” value ([2]; last observed value)?
A: 2.5

Q: And the “MSFC total z scores at 24 months, Effect: reduction of risk to progress” value ([2]; vs placebo)?
A: 34% reduction of

Source: patent publication US9662322B2 (TEVA PHARMACEUTICAL INDUSTRIES, LTD., priority 2014, dated 2017)
